Target: Recombinant human IDO (Homo sapiens, UniProt P14902)
Assay: Bridge-IT tryptophan fluorescence assay of human IDO-1 inhibition
Format: biochemical
Conditions: recombinant human IDO 7.5 nM, L-tryptophan
Description: Measurement of human IDO-1 inhibition is performed in 384 well format using the Bridge-IT® tryptophan Fluorescence Assay (Mediomics, LLC, St. Louis, Mo., U.S.A.).
The reaction is initiated by the addition of L-Tryptophan (Sigma) at a final concentration of 100 μM in assay buffer. After 90 minutes of incubation at 37° C., the reaction is stopped by transferring 1 μl of the reaction mixture to 9 μl of Bridge-IT assay solution A. After 30 min of incubation at 30° C., the fluorescence intensity was measured at λex=485 nm and λem=665 nm using Perkin Elmer Envision® Multilabel Reader.
Measurement of human IDO-1 inhibition was performed in 384-well format using the BRIDGE-IT® tryptophan Fluorescence Assay (Mediomics, LLC, St. Louis, Mo., U.S.A.). […] After 30 minutes of pre-incubation at 25° C., the reaction was initiated by the addition of L-Tryptophan (Sigma) at a final concentration of 50 μM in assay buffer. After 60 minutes of incubation at 25° C., the reaction is stopped by transferring 1 μl of the reaction mixture to 9 μl of Bridge-IT assay solution A. After 30 min of incubation at 30° C., the fluorescence intensity was measured at λex=485 nm and λem=665 nm using Perkin Elmer ENVISION® Multilabel Reader.

Chain of Recombinant human IDO (P14902 whole entry): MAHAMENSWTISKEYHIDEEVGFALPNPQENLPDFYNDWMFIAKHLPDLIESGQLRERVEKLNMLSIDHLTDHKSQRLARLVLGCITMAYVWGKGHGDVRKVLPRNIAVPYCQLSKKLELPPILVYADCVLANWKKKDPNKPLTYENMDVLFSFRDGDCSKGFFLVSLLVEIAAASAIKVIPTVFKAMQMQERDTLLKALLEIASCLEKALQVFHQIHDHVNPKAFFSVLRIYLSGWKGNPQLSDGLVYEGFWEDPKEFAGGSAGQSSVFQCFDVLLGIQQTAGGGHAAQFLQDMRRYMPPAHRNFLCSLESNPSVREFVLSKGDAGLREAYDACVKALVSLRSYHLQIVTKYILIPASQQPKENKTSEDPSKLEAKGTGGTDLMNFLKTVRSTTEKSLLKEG

OC1CCC(C(O)CC2c3c(ccnc3F)-c3cncn32)CC1 (mixture of isomers) [Compound 4a, 4-(2-[9-fluoro-4,6,10-triazatricyclo[6.4.0.0^[2,6]]dodeca-1(8),2,4,9,11-pentaen-7-yl]-1-hydroxyethyl) cyclohexan-1-ol]
IC50: > 1 µM

OC1CCC(F)(CCC2c3ncccc3-c3cncn32)CC1 (mixture of isomers) [Compound 7a, 4-fluoro-4-(2-{4,6,9-triazatricyclo[6.4.0.0^[2,6]]dodeca-1(8),2,4,9,11-pentaen-7-yl}ethyl)cyclohexan-1-ol]
IC50: > 1 µM

OC1CCC(F)(CCC2c3ncccc3-c3cncn32)CC1 (mixture of isomers) [Compound 7b, 4-fluoro-4-(2-{4,6,9-triazatricyclo[6.4.0.0^[2,6]]dodeca-1(8),2,4,9,11-pentaen-7-yl}ethyl)cyclohexan-1-ol]
IC50: > 1 µM

OC(CC1c2ncncc2-c2cncn21)C1CCCCC1 (mixture of isomers) [Compound 67d, 1-cyclohexyl-2-[4,6,9,11-tetraazatricyclo[6.4.0.0^[2,6]]dodeca-1(8),2,4,9,11-pentaen-7-yl]ethan-1-ol]
IC50: > 1 µM

OC(CC1c2nc(OC3CC3)ccc2-c2cncn21)C1CCCCC1 (mixture of isomers) [Compound 68b, 1-cyclohexyl-2-[10-cyclopropoxy-4,6,9-triazatricyclo[6.4.0.0^[2,6]]dodeca-1(8),2,4,9,11-pentaen-7-yl]ethan-1-ol]
IC50: > 1 µM

OC1CCC(C(F)(F)CC2c3ccccc3-c3cncn32)CC1 (mixture of isomers) [Compound 74a, 4-(1,1-difluoro-2-[5H-imidazo[4,3-a]isoindol-5-yl]ethyl)cyclohexan-1-ol]
IC50: < 0.1 µM

OC1CCC(C(F)(F)CC2c3ccccc3-c3cncn32)CC1 (mixture of isomers) [Compound 74b, 4-(1,1-difluoro-2-[5H-imidazo[4,3-a]isoindol-5-yl]ethyl)cyclohexan-1-ol]
IC50: 0.1 to 1 µM

OC1CCC(C(F)(F)CC2c3c(F)cccc3-c3cncn32)CC1 (mixture of isomers) [Compound 75b, 4-(1,1-difluoro-2-[6-fluoro-5H-imidazo[4,3-a]isoindol-5-yl]ethyl)cyclohexan-1-ol]
IC50: 0.1 to 1 µM

OC1CCC(C(F)(F)CC2c3c(F)ccc(F)c3-c3cncn32)CC1 (mixture of isomers) [Compound 78a, 4-(2-[6,9-difluoro-5H-imidazo[4,3-a]isoindol-5-yl]-1,1-difluoroethyl)cyclohexan-1-ol]
IC50: 0.1 to 1 µM

OC1CCC(C(F)(F)CC2c3c(F)ccc(F)c3-c3cncn32)CC1 (mixture of isomers) [Compound 78b, 4-(2-[6,9-difluoro-5H-imidazo[4,3-a]isoindol-5-yl]-1,1-difluoroethyl)cyclohexan-1-ol]
IC50: > 1 µM

OC1(C2CCC(F)(CCC3c4c(F)cccc4-c4cncn43)CC2)CC1 (mixture of isomers) [Compound 85a, 1-[4-fluoro-4-(2-[6-fluoro-5H-imidazo[4,3-a]isoindol-5-yl]ethyl)cyclohexyl]cyclopropan-1-ol]
IC50: < 0.1 µM

CC(C)(O)C1CCC(F)(CCC2c3c(F)cccc3-c3cncn32)CC1 (mixture of isomers) [Compound 86b, 2-[4-fluoro-4-(2-[6-fluoro-5H-imidazo[4,3-a]isoindol-5-yl]ethyl)cyclohexyl]propan-2-ol]
IC50: < 0.1 µM

O=C(C1CCC(F)(CCC2c3ncccc3-c3cncn32)CC1)N1CCCCC1 (mixture of isomers) [Compound 100a, 7-[2-[1-Fluoro-4-[(piperidin-1-yl)carbonyl]cyclohexyl]ethyl]-4,6,9-triazatricyclo[6.4.0.0^[2,6]]dodeca-1(8),2,4,9,11-pentaene]
IC50: 0.1 to 1 µM

O=C(C1CCC(F)(CCC2c3ncccc3-c3cncn32)CC1)N1CCCCC1 (mixture of isomers) [Compound 100b, 7-[2-[1-Fluoro-4-[(piperidin-1-yl)carbonyl]cyclohexyl]ethyl]-4,6,9-triazatricyclo[6.4.0.0^[2,6]]dodeca-1(8),2,4,9,11-pentaene]
IC50: > 1 µM

OC1CCC(F)(CCC2c3nccc(F)c3-c3cncn32)CC1 (mixture of isomers) [Compound 103a, 4-fluoro-4-(2-[12-fluoro-4,6,9-triazatricyclo[6.4.0.0^[2,6]]dodeca-1(8),2,4,9,11-pentaen-7-yl]ethyl)cyclohexan-1-ol]
IC50: > 1 µM

NC1CCC(F)(CCC2c3ccccc3-c3cncn32)CC1 (mixture of isomers) [Compound 104a, 4-fluoro-4-(2-[5H-imidazo[4,3-a]isoindol-5-yl]ethyl)cyclohexan-1-amine]
IC50: > 1 µM

NC1CCC(F)(CCC2c3ccccc3-c3cncn32)CC1 (mixture of isomers) [Compound 104b, 4-fluoro-4-(2-[5H-imidazo[4,3-a]isoindol-5-yl]ethyl)cyclohexan-1-amine]
IC50: 0.1 to 1 µM

OCC1CCC(F)(CCC2c3c(Cl)cccc3-c3cncn32)CC1 (mixture of isomers) [Compound 105b, [4-[2-[6-chloro-5H-imidazo[4,3-a]isoindol-5-yl]ethyl]-4-fluorocyclohexyl]methanol]
IC50: > 1 µM

OC1(C2CCC(F)(CCC3c4c(Cl)cccc4-c4cncn43)CC2)CC1 (mixture of isomers) [Compound 106a, 1-[4-(2-[6-chloro-5H-imidazo[4,3-a]isoindol-5-yl]ethyl)-4-fluorocyclohexyl]cyclopropan-1-ol]
IC50: < 0.1 µM

CC(C)(O)C1CCC(F)(CCC2c3c(Cl)cccc3-c3cncn32)CC1 (mixture of isomers) [Compound 107a, 2-[4-(2-[6-chloro-5H-imidazo[4,3-a]isoindol-5-yl]ethyl)-4-fluorocyclohexyl]propan-2-ol]
IC50: > 1 µM

FC(CC1c2ccccc2-c2cncn21)C1CCCCC1 (mixture of isomers) [Compound 108a, 5-[2-cyclohexyl-2-fluoroethyl]-5H-imidazo[4,3-a]isoindole]
IC50: 0.1 to 1 µM

O=C(C1CCC(F)(CCC2c3c(F)cccc3-c3cncn32)CC1)N1CCCCC1 (mixture of isomers) [Compound 110b]
IC50: 0.1 to 1 µM

CN(C)C(=O)C1CCC(F)(CCC2c3c(F)cccc3-c3cncn32)CC1 (mixture of isomers) [Compound 111a, 4-fluoro-4-(2-[6-fluoro-5H-imidazo[4,3-a]isoindol-5-yl]ethyl)-N,N-dimethylcyclohexane-1-carboxamide]
IC50: < 0.1 µM

COc1ccc2c(n1)C(CC(N)C1CCCCC1)n1cncc1-2 (mixture of isomers) [Compound 118a, 1-cyclohexyl-2-[10-methoxy-4,6,9-triazatricyclo[6.4.0.0^[2,6]]dodeca-1(8),2,4,9,11-pentaen-7-yl]ethan-1-amine]
IC50: > 1 µM

FC(F)(CC1c2ccccc2-c2cncn21)C1CCCCC1 (racemic) [Compound 64, 5-(2-cyclohexyl-2,2-difluoroethyl)-5H-imidazo[4,3-a]isoindole]
IC50: 0.1 to 1 µM

Fc1cccc2c1C(CC(F)(F)C1CCCCC1)n1cncc1-2 (racemic) [Compound 65, 5-(2-cyclohexyl-2,2-difluoroethyl)-6-fluoro-5H-imidazo[4,3-a]isoindole]
IC50: 0.1 to 1 µM

FC1(CCC2c3ccccc3-c3cncn32)CCCCC1 (single isomer, unassigned) [Compound 1a, 5-(2-(1-fluorocyclohexyl)ethyl)-5H-imidazo[5,1-a]isoindole]
IC50: > 1 µM

From patent publication US9771370B2, “Compounds for the inhibition of indoleamine-2,3-dioxygenase” (Merck Patent GmbH, priority 2014, dated 2017)
